Results: patent US20090076142A1, “USE OF THE IRRITATING PRINCIPAL OLEOCANTHAL IN OLIVE OIL, AS WELL AS STRUCTURALLY AND FUNCTIONALLY SIMILAR COMPOUNDS” (The Trustees of the University of Pennsylvania, priority 2005, published 2009)

Legend:
ovine COX-1 = biological target: T1, ovine COX-1 (Ovis aries, UniProt P05979); test: Cyclooxygenase COX-1 inhibition assay (Cayman Chemicals kit); format: biochemical; conditions: for inhibition at 7 µM / inhibition at 25 µM / inhibition at 100 µM: mean ± SEM, three independent experiments, read-out: Percent inhibition of COX-1; for IC50: least squares regression analysis of inhibition vs. concentration, read-out: calculated IC50 for COX-1
T1 construct: purchased Cayman Chemicals
T1 sequence (P05979 25-600): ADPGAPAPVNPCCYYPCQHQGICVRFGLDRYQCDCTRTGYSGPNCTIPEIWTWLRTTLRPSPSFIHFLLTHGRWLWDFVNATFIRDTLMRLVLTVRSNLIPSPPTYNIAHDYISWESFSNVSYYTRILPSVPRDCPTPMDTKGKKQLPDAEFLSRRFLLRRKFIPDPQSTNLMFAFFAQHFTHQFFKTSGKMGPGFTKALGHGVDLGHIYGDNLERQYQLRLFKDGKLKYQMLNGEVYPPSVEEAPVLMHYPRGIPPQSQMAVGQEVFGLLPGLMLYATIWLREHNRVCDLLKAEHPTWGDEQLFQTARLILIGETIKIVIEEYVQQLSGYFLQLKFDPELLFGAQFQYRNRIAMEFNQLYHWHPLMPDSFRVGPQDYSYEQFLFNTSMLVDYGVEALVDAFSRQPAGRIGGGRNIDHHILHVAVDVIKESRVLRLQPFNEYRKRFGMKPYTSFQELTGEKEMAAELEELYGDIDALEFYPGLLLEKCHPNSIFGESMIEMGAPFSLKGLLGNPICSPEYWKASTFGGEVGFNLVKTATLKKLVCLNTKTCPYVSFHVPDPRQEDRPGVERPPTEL

human recombinant COX-2 = biological target: T2, human recombinant COX-2 (Homo sapiens, UniProt P35354); test: Cyclooxygenase COX-2 inhibition assay (Cayman Chemicals kit); format: biochemical; conditions: for inhibition at 7 µM / inhibition at 25 µM / inhibition at 100 µM: mean ± SEM, three independent experiments, read-out: Percent inhibition of COX-2; for IC50: least squares regression analysis of inhibition vs. concentration, read-out: calculated IC50 for COX-2
T2 construct: purchased Cayman Chemicals
T2 sequence (P35354 18-604): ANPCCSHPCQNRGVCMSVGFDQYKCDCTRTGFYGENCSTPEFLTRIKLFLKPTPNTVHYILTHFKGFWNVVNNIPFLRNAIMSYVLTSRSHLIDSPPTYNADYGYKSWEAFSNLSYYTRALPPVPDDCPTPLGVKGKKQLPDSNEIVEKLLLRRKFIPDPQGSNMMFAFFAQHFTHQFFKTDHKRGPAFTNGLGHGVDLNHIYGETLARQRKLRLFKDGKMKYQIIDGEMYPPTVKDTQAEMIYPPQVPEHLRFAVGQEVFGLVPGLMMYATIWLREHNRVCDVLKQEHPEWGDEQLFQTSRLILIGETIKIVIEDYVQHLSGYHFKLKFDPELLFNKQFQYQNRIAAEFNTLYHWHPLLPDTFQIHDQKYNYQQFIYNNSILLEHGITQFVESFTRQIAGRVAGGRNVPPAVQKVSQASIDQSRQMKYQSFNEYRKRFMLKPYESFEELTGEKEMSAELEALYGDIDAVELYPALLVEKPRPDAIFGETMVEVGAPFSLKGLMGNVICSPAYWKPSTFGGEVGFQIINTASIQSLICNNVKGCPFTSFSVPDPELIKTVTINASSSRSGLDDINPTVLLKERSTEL

soybean 15-lipoxygenase = biological target: T3, soybean 15-lipoxygenase (Glycine max, UniProt P08170); test: 15-lipoxygenase inhibition assay (Cayman Chemicals kit); format: biochemical; conditions: mean ± SEM, three independent experiments, read-out: Percent inhibition of 15-LO
T3 construct: purchased Cayman Chemicals
T3 sequence (P08170 1-839): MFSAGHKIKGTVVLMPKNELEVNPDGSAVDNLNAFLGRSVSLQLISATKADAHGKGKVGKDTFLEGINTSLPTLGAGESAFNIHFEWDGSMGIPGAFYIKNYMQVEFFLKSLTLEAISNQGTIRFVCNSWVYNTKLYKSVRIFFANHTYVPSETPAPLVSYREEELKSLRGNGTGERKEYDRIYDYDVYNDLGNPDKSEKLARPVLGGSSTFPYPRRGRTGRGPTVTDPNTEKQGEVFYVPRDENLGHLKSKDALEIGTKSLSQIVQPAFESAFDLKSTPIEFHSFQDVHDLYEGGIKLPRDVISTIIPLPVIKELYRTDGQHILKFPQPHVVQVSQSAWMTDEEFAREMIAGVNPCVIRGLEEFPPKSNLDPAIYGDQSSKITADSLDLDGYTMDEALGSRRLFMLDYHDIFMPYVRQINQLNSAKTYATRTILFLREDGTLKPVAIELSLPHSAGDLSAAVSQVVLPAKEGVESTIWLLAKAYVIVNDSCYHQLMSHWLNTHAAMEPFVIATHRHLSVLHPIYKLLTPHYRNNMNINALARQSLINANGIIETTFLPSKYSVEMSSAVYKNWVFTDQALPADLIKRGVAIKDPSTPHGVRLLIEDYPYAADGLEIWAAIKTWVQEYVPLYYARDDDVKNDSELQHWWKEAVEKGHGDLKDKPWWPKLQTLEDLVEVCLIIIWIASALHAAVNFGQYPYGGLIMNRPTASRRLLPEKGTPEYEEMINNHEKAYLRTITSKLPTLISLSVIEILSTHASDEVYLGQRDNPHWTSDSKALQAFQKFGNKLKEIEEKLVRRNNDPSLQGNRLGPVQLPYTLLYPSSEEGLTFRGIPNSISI

throat irritation = test: Throat irritation sensory test, two-alternative forced-choice, compound in corn oil; format: in vivo, human
Protocol: Testing was double-blind and each was exposed to three sets of two samples, one of which was added synthesized oleocanthal and the other served as the blank control. The task was to indicated which of the pair was more irritating. […] Importantly, the effect was dose dependent (FIG. 2 open triangles, dashed line). Ten subjects were tested with non-irritating commercial corn oils presented neat and mixed with either synthesized (−)-oleocanthal or the bitter agent sucrose octaacetate (SOA) (Sigma-Aldrich). […] (−)-Oleocanthal was tested at the highest concentration identified in the ten rated oils, 200 μg/ml, and at one half and whole log steps more dilute 63.25 and 20 μg/ml. SOA was added to the corn oil (4×10^−4, 1×10^−4, 5×10^−5 M) to intensity match the irritation of the three levels of (−)-oleocanthal. Subjects participated in two-alternative forced-choice (2AFC) trials (four trials at every concentration for each subject) and in intensity ratings sessions (four ratings per each oil). For the 2AFC trials subjects were presented with two 3.0 ml corn oil samples with matching intensities of SOA and (−)-oleocanthal in ascending order, and were required to sample oils as described above. While blind to stimulus position, subjects were asked two questions on each trial, “Which of the two oils was more irritating in the throat?” and “Which one was more bitter?” At the 20 μg/ml & 5×10^−5 M level most subjects reported on some trials that the same oil was both the more irritating and the more bitter of the two. […] Subjects performed at chance when selecting among two unadulterated corn oils, when the correct choice was randomly assigned prior to testing. […] The other two concentrations were correct 39/40 and 40/40 trials. For the intensity rating trials subjects were presented with all eight oils in ascending order, counterbalanced for stimulus order and asked to rate the throat irritation and bitterness of every oil on a general labeled magnitude scale.

SMILES | inhibition at 7 µM (ovine COX-1) | inhibition at 25 µM (ovine COX-1) | inhibition at 100 µM (ovine COX-1) | IC50 (ovine COX-1) | inhibition at 7 µM (human recombinant COX-2) | inhibition at 25 µM (human recombinant COX-2) | inhibition at 100 µM (human recombinant COX-2) | IC50 (human recombinant COX-2) | inhibition at 7 µM (soybean 15-lipoxygenase) | inhibition at 25 µM (soybean 15-lipoxygenase) | inhibition at 100 µM (soybean 15-lipoxygenase) | correct 2AFC trials (more irritating in the throat) (throat irritation; 20 μg/ml in corn oil vs SOA, ten subjects) | detection threshold level of throat irritation in corn oil (throat irritation; corn oil, ten subjects) | throat irritation compared with oleocanthal isolated from premium olive oil (throat irritation; synthetic compound in corn oil) | correct identification of the more irritating sample (2AFC) (throat irritation; three evaluators, three presentations, corn oil, approximately twice the concentration found in Falconaro olive oil, p<0.01)
C/C=C(/C=O)[C@@H](CC=O)CC(=O)OCCc1ccc(O)cc1 [Oleocanthal (−), 2-(4-hydroxyphenyl)ethyl, 4-formyl-3-(2-oxoethyl)-4-hexenoic acid ester] | 24.6 ± 7.3% | 56.1 ± 3.2% | 83.5 ± 3.5% | 21.4 µM | 14.5 ± 2.3% | 56.6 ± 9.5% | 70.9 ± 8.6% | 29.4 µM | 0% | 0% | 0.4 ± 0.8% | 24 out of 40 | ~20 µg/mL | identical to oleocanthal isolated from premium olive oil | 9 of 9
CC=C(C=O)C(CC=O)CC(=O)OCCc1ccc(O)cc1 (single isomer, unassigned) [Oleocanthal (+)] | 24.6 ± 7.5% | 54.5 ± 4.6% | 68 ± 15.2% | 27.9 µM | 6.1 ± 4.2% | 41.3 ± 15.9% | 69.6 ± 3.9% | 40.5 µM | 0% | 0.7 ± 1% | 3.5 ± 5.5% | – | – | – | –
COc1ccc2c(c1)c(CC(=O)O)c(C)n2C(=O)c1ccc(Cl)cc1 [Indomethacin, reference compound] | – | – | – | – | – | – | – | – | 0.5 ± 0.1% | 0.1 ± 0.9% | – | – | – | – | –
O=C(O)/C=C/c1ccc(O)c(O)c1 [Caffeic Acid, caffeic acid, reference compound] | – | – | – | – | – | – | – | – | 19.8 ± 1.3% | 25.2 ± 2.2% | – | – | – | – | –
